In article PMC8599359 (Molecular Neurobiology, 2021):

Tests used:
MMP-2 [1] = target: T1, MMP-2 (Homo sapiens, UniProt P08253); test: Gelatin zymography of medium of PMA-stimulated THP-1 cells; type: cell-based; details: 100 µM, 18 h, compared to controls
T1 sequence (P08253 110-660): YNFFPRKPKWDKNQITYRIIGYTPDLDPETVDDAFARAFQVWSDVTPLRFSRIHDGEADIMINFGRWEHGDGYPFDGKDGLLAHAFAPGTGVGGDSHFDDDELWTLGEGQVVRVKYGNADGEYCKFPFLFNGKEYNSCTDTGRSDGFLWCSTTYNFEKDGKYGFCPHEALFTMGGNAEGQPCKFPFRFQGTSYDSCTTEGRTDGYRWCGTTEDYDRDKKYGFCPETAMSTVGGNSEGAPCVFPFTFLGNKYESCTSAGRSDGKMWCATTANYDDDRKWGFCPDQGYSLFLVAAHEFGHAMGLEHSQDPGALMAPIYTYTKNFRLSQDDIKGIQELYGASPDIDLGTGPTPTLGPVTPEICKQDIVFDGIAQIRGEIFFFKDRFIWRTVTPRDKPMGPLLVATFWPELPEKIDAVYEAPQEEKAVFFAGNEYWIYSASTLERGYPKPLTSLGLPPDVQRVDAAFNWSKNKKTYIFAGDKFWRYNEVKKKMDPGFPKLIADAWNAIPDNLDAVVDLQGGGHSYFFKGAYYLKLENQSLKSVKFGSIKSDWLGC
Description: THP-1 cells were plated in 12-well plates at a density of 1 × 10^6 cells per well. First, THP-1 were treated with phorbol-12-myristate-13-acetate (PMA) for 24 h to promote the differentiation of cells into macrophages and stimulate MMP secretion. […] For each treatment, biological triplicate samples were utilized. Following treatment, cell medium was collected from each well and centrifuged at 800 × g for 10 min at 4 °C to remove any cell debris. Collected samples were stored at − 80 °C for further analysis. A 10% SDS–polyacrylamide gel containing 0.1% gelatin was loaded with 3 µg of protein from cell medium for gelatin zymography. In parallel, second 10% SDS–polyacrylamide gel was used to assess equal protein loading. In addition, recombinant human MMP-2 and MMP-9 (10 ng each) were loaded as standards (EMD Millipore, Burlington, MA). Gel ran at 60 V until the loading dye reached the bottom of the gel. After the run, the gelatin gel was washed with water for 15 min and incubated in renaturation buffer [2.5% (v/v) Triton X-100 in Milli-Q water] for 60 min at room temperature. The renaturation buffer was replaced with a fresh renaturation buffer at the interval of 30 min. […] Relative activity of MMPs was measured by quantitating band density by ImageJ software and normalized with respective standard.

MMP-14 = test: MMP expression in embryo brain (Western blot); type: in vivo, mouse; details: GD 16.5, DTG vs control
Description: (§1) At GD 16.5, embryo whole brain tissues were isolated and homogenized in lysis buffer. Whole brain tissue homogenates were analyzed for expression of MMP-2, 9, and 14 using Western blot assay. Six pups were randomly selected from 6 different dams for both DTG- and vehicle-treated groups. Tissue lysates were centrifuged at 16,000 × g at 4 °C for 20 min and supernatants were collected. Total protein levels in each sample were quantitated using Pierce™ BCA Protein Assay Kit (Thermo Fisher Scientific). Fifteen micrograms of protein for each sample was ran on 10% SDS–polyacrylamide gel. Proteins were transferred to activated PVDF membrane. Membranes were blocked with 5% non-fat milk (BIO-RAD) for 1 h and incubated with individual primary antibody overnight at 4 °C on a shaker. The primary antibodies used were rabbit monoclonal anti-MMP-2 (ab181286, abcam, Cambridge, MA), rabbit polyclonal anti-MMP-9 (ab38898, abcam), rabbit monoclonal anti-MMP-14 (ab51074, abcam), rabbit monoclonal GAPDH (Cell Signaling Technology, Inc., Danvers, MA), and mouse monoclonal β-actin (Santa Cruz Biotechnology, Dallas, TX). All the primary antibodies were used at 1:2000 dilution. After overnight incubation with primary antibody, the membranes were washed with Tris-buffered saline with 0.1% Tween® 20 detergent (TBST) three times (5 min each wash). Membranes were then incubated with secondary antibody for 1 h at room temperature. The secondary antibodies used were goat anti-rabbit IgG H&L (HRP) (ab205718, abcam) and goat anti-mouse IgG H&L (HRP) (ab205719, abcam). For secondary antibodies, 1:10,000 dilutions were used. Blots were developed using SuperSignal™ West Femto Maximum Sensitivity Substrate (Thermo Fisher Scientific) and iBright 750 Imaging System. Band intensity was analyzed using ImageJ software.

MMP-2 [2] = test: MMP expression in embryo brain (Western blot); type: in vivo, mouse; details: GD 16.5, DTG vs control
Description: as §1

MMP-9 = test: MMP expression in embryo brain (Western blot); type: in vivo, mouse; details: GD 16.5, DTG vs control
Description: as §1

[3] = system: infants born to women receiving DTG at conception; details: cited from earlier work
HIV-1 integrase = details: read-out: IC50 as INSTI; cited from earlier work

SMILES: C[C@@H]1CCO[C@H]2Cn3cc(C(=O)NCc4ccc(F)cc4F)c(=O)c(O)c3C(=O)N12 [DTG, Dolutegravir]
- Relative activity of pro and active forms of MMP-2 (MMP-2 [1]): significantly decreased
- protein levels of MMP-14 in embryo brain tissue (MMP-14): No significant differences
- protein levels of MMP-2 in embryo brain tissue (MMP-2 [2]): No significant differences
- protein levels of MMP-9 in embryo brain tissue (MMP-9): No significant differences
- overall clinical prevalence of NTDs among infants born to women receiving DTG at conception [3]: ~ 0.3%
- risk of NTDs relative to other ARTs at conception ([3]; extended surveillance in Botswana): 2–3 times
- IC50 (HIV-1 integrase): 2.7 nM
